# From patent US20240279220A1, “INDOLE COMPOUNDS AND METHODS OF USE” (Genzyme Corporation, priority 2021, published 2024)
# System: NBD1/3D
# Assay: Aggregation analysis using differential static light scattering (DSLS), NBD1 thermal stability
# Assay type: binding, Human
# Conditions: ΔTagg versus DMSO control; compound at 100 μM
# How it was run: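 Thermal stabilisation reported as ΔTagg, i.e. aggregation temperature relative to averaged DMSO wells. Tagg came from the inflection of differential static light scattering imaged 25–70 °C while NBD1 (0.2 mg/ml, Tris pH 7.6 buffer containing ATP, MgCl2, DTT, glycerol) was ramped 1 °C/min.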
row,Structure (SMILES),DSLS NBD1/3D Human Stability delta-T (° C.) @ 100 (μM)
1,"CC(O)(c1cccc(CCC(=O)O)c1)c1cnc(-c2cc(Oc3c(F)cc4[nH]ccc4c3S(C)(=O)=O)ccc2F)[nH]1 (stereo not shown) [Example 26, 3-(3-(1-(2-(2-Fluoro-5-((6-fluoro-4-(methylsulfonyl)-1H-indol-5-yl)oxy)phenyl)-1H-imidazol-5-yl)-1-hydroxyethyl)phenyl)propanoic acid]",A (A: T ≥ 10° C.)
2,"CS(=O)(=O)c1c(Oc2ccc(F)c(-c3ncc(Cc4cccc(CCC(N)=O)c4)[nH]3)c2)c(F)cc2[nH]ccc12 [Example 24, 3-(3-((2-(2-Fluoro-5-((6-fluoro-4-(methylsulfonyl)-1H-indol-5-yl)oxy)phenyl)-1H-imidazol-5-yl)methyl)phenyl)propanamide]",B (B: 5-10° C.)
3,"CS(=O)(=O)c1c(Oc2cccc(-c3ncn(Cc4cccc(CCC(N)=O)c4)n3)c2)c(F)cc2[nH]ccc12 [Example 34, 3-(3-((3-(3-((6-Fluoro-4-(methylsulfonyl)-1H-indol-5-yl)oxy)phenyl)-1H-1,2,4-triazol-1-yl)methyl)phenyl)propanamide]",B (B: 5-10° C.)
4,"Cc1c(Oc2cccc(-c3ccn(Cc4cccc(CC(=O)O)c4)n3)c2)ccc2[nH]ccc12 [Example 5, 2-(3-((3-(3-((4-methyl-1H-indol-5-yl)oxy)phenyl)-1H-pyrazol-1-yl)methyl)phenyl)acetic acid]",B (B: 5-10° C.)
5,"Cc1c(Oc2ccc(F)c(-c3nnc(Cc4cccc5c4CC(C(=O)O)C5)[nH]3)c2)c(F)cc2[nH]ccc12 (stereo not shown) [Example 244, 4-((5-(2-Fluoro-5-((6-fluoro-4-methyl-1H-indol-5-yl)oxy)phenyl)-4H-1,2,4-triazol-3-yl)methyl)-2,3-dihydro-1H-indene-2-carboxylic acid]",C (C: ≤5° C.)
6,"Cc1c(Oc2cccc(-c3c(F)cnn3Cc3cccc(CCC(=O)O)c3)c2)c(F)cc2[nH]ccc12 [Example 20, 3-(3-((4-Fluoro-5-(3-((6-fluoro-4-methyl-1H-indol-5-yl)oxy)phenyl)-1H-pyrazol-1-yl)methyl)phenyl)propanoic acid]",C (C: ≤5° C.)
7,"Cc1c(Oc2cccc(-c3ncc(C(O)c4cccc(C5CC5C(=O)O)c4)[nH]3)c2)ccc2[nH]ccc12 (stereo not shown) [Example 176, 2-(3-(hydroxy(2-(3-((4-methyl-1H-indol-5-yl)oxy)phenyl)-1H-imidazol-5-yl)methyl)phenyl)cyclopropane-1-carboxylic acid]",B (B: 5-10° C.)
8,"O=C(O)CCc1cccc(Cc2cnc(-c3cc(Oc4c(F)cc5[nH]ccc5c4CNCC(F)(F)F)ccc3F)[nH]2)c1 [Example 265, 3-(3-((2-(2-Fluoro-5-((6-fluoro-4-(((2,2,2-trifluoroethyl)amino)methyl)-1H-indol-5-yl)oxy)phenyl)-1H-imidazol-5-yl)methyl)phenyl)propanoic acid]",B (B: 5-10° C.)
9,"Cc1c(Oc2ccc(F)c(-c3nc(C(C)(C)c4cccc(CCC(=O)O)c4F)c[nH]3)c2)c(F)c(F)c2[nH]ccc12 [Example 158, 3-(3-(2-(2-(5-((6,7-difluoro-4-methyl-1H-indol-5-yl)oxy)-2-fluorophenyl)-1H-imidazol-4-yl)propan-2-yl)-2-fluorophenyl)propanoic acid]",B (B: 5-10° C.)
10,"CC(C)OCCOCCC(c1cnc(-c2cc(Oc3c(F)cc4[nH]ccc4c3F)ccc2F)[nH]1)c1cccc(CCC(=O)O)c1F (single isomer, unassigned) [Example 130A, 3-(3-(1-(2-(5-((4,6-difluoro-1H-indol-5-yl)oxy)-2-fluorophenyl)-1H-imidazol-5-yl)-3-(2-isopropoxyethoxy)propyl)-2-fluorophenyl)propanoic acid]",C (C: ≤5° C.)
11,"CC(C#N)(c1cccc(CCC(=O)O)c1)c1cnc(-c2cc(Oc3c(F)c(F)c4[nH]ccc4c3C3CC3)ccc2F)[nH]1 (stereo not shown) [Example 53, 3-(3-(1-cyano-1-(2-(5-((4-cyclopropyl-6,7-difluoro-1H-indol-5-yl)oxy)-2-fluorophenyl)-1H-imidazol-5-yl)ethyl)phenyl)propanoic acid]",B (B: 5-10° C.)
12,"Cc1c(Oc2ccc(F)c(-c3ncc(C(C)c4cccc([C@@H]5C[C@@H]5C(=O)O)c4F)[nH]3)c2)c(F)cc2[nH]ccc12 (single isomer, unassigned) [Example 138A, cis-2-(2-fluoro-3-(1-(2-(2-fluoro-5-((6-fluoro-4-methyl-1H-indol-5-yl)oxy)phenyl)-1H-imidazol-5-yl)ethyl)phenyl)cyclopropane-1-carboxylic acid]",C (C: ≤5° C.)
13,"CS(=O)(=O)c1c(Oc2ccc(F)c(-c3nc(C4(c5cccc(CCC(=O)O)c5)CC4)co3)c2)c(F)cc2[nH]ccc12 [Example 81, 3-(3-(1-(2-(2-Fluoro-5-((6-fluoro-4-(methylsulfonyl)-1H-indol-5-yl)oxy)phenyl)oxazol-4-yl)cyclopropyl)phenyl)propanoic acid]",B (B: 5-10° C.)
14,"CC(Cc1cccc(C(C)c2cnc(-c3cc(Oc4c(F)cc5[nH]ccc5c4F)ccc3F)[nH]2)c1F)C(=O)O (single isomer, unassigned) [Example 137C, 3-(3-(1-(2-(5-((4,6-difluoro-1H-indol-5-yl)oxy)-2-fluorophenyl)-1H-imidazol-5-yl)ethyl)-2-fluorophenyl)-2-methylpropanoic acid]",C (C: ≤5° C.)
15,"CS(=O)(=O)c1c(Oc2cccc(-c3nc(Cc4cccc(CCC(=O)O)c4)cs3)c2)c(F)cc2[nH]ccc12 [Example 35, 3-(3-((2-(3-((6-Fluoro-4-(methylsulfonyl)-1H-indol-5-yl)oxy)phenyl)thiazol-4-yl)methyl)phenyl)propanoic acid]",B (B: 5-10° C.)
16,"Cc1c(Oc2ccc(F)c(-c3nnc(C(C)(O)c4cccc(CCC(=O)O)c4)[nH]3)c2)c(F)cc2[nH]ccc12 (stereo not shown) [Example 251, 3-(3-(1-(5-(2-fluoro-5-((6-fluoro-4-methyl-1H-indol-5-yl)oxy)phenyl)-4H-1,2,4-triazol-3-yl)-1-hydroxyethyl)phenyl)propanoic acid]",B (B: 5-10° C.)
17,"Cc1c(Oc2ccc(F)c(-c3ncc(Cc4cccc(CCC(=O)O)n4)[nH]3)c2)c(F)cc2[nH]ccc12 [Example 90, 3-(6-((2-(2-fluoro-5-((6-fluoro-4-methyl-1H-indol-5-yl)oxy)phenyl)-1H-imidazol-5-yl)methyl)pyridin-2-yl)propanoic acid]",B (B: 5-10° C.)
18,"CC(O)(c1cccc([C@@H]2C[C@H]2C(=O)O)c1)c1c[nH]c(-c2cccc(Oc3c(F)cc4[nH]ccc4c3F)c2)n1 (mixture of isomers) [Example 184, rac-(1r,2r)-2-(3-(1-(2-(3-((4,6-Difluoro-1H-indol-5-yl)oxy)phenyl)-1H-imidazol-4-yl)-1-hydroxyethyl)phenyl)cyclopropane-1-carboxylic acid]",B (B: 5-10° C.)
19,"Cc1c(Oc2ccc(F)c(-c3ncc(Cc4cc(F)cc(CCC(=O)O)c4)[nH]3)c2)c(F)cc2[nH]ccc12 [Example 108, 3-(3-fluoro-5-((2-(2-fluoro-5-((6-fluoro-4-methyl-1H-indol-5-yl)oxy)phenyl)-1H-imidazol-5-yl)methyl)phenyl)propanoic acid]",B (B: 5-10° C.)
